Assays:
Design in all cases: scale not given: the % may be the effect or the level left
[1] = molecular target: Calcium/calmodulin-dependent protein kinase type 1B (Homo sapiens) (UniProt Q6P2M8); assay: Inhibition of human CAMK1b assessed as enzyme activity at 1 uM using KKALRRQETVDAL as substrate preincubated for 20 mins followed by [gamma-33P]-ATP addition and measured after 120 mins by radiometric Hot-SpotSM Kinase assay relative to control
[2] = molecular target: T1, Serine/threonine-protein kinase 3 (Homo sapiens) (UniProt Q13188); assay: Inhibition of human MST2 assessed as enzyme activity at 1 uM using myelin basic protein as substrate preincubated for 20 mins followed by [gamma-33P]-ATP addition and measured after 120 mins by radiometric Hot-SpotSM Kinase assay relative to control
T1 sequence (whole entry): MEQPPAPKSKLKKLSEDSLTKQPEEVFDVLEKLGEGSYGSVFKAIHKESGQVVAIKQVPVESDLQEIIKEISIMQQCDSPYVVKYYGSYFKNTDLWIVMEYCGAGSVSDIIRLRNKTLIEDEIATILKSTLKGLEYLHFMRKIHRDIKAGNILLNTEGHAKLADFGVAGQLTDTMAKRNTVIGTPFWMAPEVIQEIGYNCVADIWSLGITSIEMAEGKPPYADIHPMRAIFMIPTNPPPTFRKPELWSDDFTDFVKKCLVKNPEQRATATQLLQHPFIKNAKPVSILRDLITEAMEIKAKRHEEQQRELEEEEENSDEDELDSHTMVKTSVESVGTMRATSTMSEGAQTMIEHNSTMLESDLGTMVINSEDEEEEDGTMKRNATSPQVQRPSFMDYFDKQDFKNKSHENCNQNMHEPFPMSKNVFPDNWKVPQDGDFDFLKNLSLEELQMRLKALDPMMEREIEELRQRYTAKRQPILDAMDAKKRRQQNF

[3] = molecular target: Tyrosine-protein kinase SYK (Homo sapiens) (UniProt P43405); assay: Inhibition of human SYK assessed as enzyme activity at 1 uM using poly[Glu:Tyr] (4:1) as substrate preincubated for 20 mins followed by [gamma-33P]-ATP addition and measured after 120 mins by radiometric Hot-SpotSM Kinase assay relative to control
[4] = molecular target: T2, Tyrosine-protein kinase Tec (Homo sapiens) (UniProt P42680); assay: Inhibition of human TEC assessed as enzyme activity at 1 uM using poly[Glu:Tyr] (4:1) as substrate preincubated for 20 mins followed by [gamma-33P]-ATP addition and measured after 120 mins by radiometric Hot-SpotSM Kinase assay relative to control
T2 sequence (whole entry): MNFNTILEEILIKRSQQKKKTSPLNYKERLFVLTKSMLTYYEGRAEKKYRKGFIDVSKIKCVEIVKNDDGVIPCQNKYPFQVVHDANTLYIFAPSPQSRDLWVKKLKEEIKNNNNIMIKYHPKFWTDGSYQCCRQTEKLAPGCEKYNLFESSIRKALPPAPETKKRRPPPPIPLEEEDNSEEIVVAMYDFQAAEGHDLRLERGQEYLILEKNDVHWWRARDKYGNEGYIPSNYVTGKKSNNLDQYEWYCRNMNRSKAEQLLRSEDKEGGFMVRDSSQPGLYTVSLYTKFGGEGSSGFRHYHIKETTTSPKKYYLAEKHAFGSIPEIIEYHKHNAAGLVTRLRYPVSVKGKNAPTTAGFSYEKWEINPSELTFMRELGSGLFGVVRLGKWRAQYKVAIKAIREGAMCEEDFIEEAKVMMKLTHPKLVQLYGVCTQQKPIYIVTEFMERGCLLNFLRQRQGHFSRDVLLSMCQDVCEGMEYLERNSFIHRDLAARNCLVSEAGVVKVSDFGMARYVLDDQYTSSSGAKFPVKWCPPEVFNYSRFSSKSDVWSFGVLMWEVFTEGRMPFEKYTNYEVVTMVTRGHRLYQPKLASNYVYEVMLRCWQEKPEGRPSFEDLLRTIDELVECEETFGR

[5] = molecular target: STE20-like serine/threonine-protein kinase (Homo sapiens) (UniProt Q9H2G2); assay: Inhibition of human SLK assessed as enzyme activity at 1 uM using histone H3 as substrate preincubated for 20 mins followed by [gamma-33P]-ATP addition and measured after 120 mins by radiometric Hot-SpotSM Kinase assay relative to control
[6] = molecular target: T3, Serine/threonine-protein kinase DCLK1 (Homo sapiens) (UniProt O15075); assay: Inhibition of human DCAMKL1 assessed as enzyme activity at 1 uM using KKLNRTLSFAEPG as substrate preincubated for 20 mins followed by [gamma-33P]-ATP addition and measured after 120 mins by radiometric Hot-SpotSM Kinase assay relative to control
T3 sequence (whole entry): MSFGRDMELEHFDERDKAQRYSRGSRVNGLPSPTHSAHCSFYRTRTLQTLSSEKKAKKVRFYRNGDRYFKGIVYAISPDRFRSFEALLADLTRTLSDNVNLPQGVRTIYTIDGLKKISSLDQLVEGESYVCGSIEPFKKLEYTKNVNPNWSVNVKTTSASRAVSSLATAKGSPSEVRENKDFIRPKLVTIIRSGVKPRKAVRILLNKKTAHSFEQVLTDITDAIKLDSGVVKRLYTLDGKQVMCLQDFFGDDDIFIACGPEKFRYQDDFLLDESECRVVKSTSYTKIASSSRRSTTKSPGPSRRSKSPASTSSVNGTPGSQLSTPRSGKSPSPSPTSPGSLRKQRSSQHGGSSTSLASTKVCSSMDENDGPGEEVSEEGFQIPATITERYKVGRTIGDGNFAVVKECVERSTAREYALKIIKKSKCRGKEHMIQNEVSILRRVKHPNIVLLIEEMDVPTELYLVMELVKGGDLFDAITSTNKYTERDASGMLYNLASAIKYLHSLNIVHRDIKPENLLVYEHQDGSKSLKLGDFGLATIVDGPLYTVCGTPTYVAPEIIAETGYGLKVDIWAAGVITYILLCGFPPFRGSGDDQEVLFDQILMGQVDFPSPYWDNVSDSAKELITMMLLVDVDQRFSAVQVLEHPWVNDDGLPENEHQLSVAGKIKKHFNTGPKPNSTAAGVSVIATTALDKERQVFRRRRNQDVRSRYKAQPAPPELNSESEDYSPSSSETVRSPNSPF

[7] = molecular target: Misshapen-like kinase 1 (Homo sapiens) (UniProt Q8N4C8); assay: Inhibition of human MINK1 assessed as enzyme activity at 1 uM using myelin basic protein as substrate preincubated for 20 mins followed by [gamma-33P]-ATP addition and measured after 120 mins by radiometric Hot-SpotSM Kinase assay relative to control
[8] = molecular target: Citron Rho-interacting kinase (Homo sapiens) (UniProt O14578); assay: Inhibition of human STK21 assessed as enzyme activity at 1 uM using KKRPQRRYSNVF as substrate preincubated for 20 mins followed by [gamma-33P]-ATP addition and measured after 120 mins by radiometric Hot-SpotSM Kinase assay relative to control
[9] = molecular target: Focal adhesion kinase 1 (Homo sapiens) (UniProt Q05397); assay: Inhibition of human FAK assessed as enzyme activity at 1 uM using poly[Glu:Tyr] (4:1) as substrate preincubated for 20 mins followed by [gamma-33P]-ATP addition and measured after 120 mins by radiometric Hot-SpotSM Kinase assay relative to control

Chain of Citron Rho-interacting kinase (Homo sapiens) (O14578 whole entry): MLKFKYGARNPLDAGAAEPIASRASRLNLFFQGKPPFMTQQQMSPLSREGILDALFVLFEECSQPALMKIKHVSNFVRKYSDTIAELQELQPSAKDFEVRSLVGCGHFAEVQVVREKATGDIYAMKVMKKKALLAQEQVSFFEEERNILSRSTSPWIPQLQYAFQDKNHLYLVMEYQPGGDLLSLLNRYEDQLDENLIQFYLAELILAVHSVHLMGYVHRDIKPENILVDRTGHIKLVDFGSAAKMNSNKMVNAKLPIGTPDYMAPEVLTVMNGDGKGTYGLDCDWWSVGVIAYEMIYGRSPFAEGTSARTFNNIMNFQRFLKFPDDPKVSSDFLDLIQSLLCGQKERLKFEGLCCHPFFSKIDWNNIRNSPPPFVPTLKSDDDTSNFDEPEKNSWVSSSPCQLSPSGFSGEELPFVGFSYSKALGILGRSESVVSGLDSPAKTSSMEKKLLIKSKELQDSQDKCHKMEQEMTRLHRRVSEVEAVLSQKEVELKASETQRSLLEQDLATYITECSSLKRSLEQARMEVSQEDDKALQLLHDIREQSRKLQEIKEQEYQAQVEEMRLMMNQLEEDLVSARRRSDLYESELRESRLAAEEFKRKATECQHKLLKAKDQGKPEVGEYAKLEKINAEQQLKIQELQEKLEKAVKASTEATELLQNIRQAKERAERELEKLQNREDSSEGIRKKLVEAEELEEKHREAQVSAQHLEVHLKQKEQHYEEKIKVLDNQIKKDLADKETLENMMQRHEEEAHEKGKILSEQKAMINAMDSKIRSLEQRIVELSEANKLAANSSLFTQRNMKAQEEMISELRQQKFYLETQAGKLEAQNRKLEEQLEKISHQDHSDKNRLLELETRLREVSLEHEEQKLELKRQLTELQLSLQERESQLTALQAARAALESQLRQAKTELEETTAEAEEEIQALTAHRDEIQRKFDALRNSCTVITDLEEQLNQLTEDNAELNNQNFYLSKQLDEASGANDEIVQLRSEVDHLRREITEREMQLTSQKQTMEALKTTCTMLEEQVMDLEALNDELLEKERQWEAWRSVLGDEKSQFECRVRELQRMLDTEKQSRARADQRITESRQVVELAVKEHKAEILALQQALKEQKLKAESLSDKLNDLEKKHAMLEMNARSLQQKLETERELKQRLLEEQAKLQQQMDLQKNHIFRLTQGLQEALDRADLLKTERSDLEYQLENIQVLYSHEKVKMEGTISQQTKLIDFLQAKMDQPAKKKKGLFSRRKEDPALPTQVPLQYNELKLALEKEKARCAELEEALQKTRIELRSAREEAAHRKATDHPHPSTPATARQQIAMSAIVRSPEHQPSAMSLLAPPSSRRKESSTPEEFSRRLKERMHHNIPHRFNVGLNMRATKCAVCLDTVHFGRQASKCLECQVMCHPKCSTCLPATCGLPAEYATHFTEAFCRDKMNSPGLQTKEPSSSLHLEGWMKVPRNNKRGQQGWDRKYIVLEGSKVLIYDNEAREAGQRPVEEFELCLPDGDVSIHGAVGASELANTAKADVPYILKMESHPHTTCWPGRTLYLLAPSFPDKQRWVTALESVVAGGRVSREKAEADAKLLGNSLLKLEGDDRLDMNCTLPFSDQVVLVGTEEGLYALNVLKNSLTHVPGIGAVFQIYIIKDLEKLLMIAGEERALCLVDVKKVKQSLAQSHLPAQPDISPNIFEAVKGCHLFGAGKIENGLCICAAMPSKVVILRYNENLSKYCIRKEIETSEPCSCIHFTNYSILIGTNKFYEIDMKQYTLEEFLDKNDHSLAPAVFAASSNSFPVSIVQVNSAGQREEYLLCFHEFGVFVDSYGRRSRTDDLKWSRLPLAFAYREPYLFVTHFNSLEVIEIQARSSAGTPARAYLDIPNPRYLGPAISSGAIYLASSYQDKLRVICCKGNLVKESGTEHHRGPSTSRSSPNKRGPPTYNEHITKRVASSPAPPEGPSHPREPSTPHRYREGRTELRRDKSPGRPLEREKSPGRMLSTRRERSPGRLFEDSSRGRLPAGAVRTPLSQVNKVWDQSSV
Chain of STE20-like serine/threonine-protein kinase (Homo sapiens) (Q9H2G2 whole entry, looked up): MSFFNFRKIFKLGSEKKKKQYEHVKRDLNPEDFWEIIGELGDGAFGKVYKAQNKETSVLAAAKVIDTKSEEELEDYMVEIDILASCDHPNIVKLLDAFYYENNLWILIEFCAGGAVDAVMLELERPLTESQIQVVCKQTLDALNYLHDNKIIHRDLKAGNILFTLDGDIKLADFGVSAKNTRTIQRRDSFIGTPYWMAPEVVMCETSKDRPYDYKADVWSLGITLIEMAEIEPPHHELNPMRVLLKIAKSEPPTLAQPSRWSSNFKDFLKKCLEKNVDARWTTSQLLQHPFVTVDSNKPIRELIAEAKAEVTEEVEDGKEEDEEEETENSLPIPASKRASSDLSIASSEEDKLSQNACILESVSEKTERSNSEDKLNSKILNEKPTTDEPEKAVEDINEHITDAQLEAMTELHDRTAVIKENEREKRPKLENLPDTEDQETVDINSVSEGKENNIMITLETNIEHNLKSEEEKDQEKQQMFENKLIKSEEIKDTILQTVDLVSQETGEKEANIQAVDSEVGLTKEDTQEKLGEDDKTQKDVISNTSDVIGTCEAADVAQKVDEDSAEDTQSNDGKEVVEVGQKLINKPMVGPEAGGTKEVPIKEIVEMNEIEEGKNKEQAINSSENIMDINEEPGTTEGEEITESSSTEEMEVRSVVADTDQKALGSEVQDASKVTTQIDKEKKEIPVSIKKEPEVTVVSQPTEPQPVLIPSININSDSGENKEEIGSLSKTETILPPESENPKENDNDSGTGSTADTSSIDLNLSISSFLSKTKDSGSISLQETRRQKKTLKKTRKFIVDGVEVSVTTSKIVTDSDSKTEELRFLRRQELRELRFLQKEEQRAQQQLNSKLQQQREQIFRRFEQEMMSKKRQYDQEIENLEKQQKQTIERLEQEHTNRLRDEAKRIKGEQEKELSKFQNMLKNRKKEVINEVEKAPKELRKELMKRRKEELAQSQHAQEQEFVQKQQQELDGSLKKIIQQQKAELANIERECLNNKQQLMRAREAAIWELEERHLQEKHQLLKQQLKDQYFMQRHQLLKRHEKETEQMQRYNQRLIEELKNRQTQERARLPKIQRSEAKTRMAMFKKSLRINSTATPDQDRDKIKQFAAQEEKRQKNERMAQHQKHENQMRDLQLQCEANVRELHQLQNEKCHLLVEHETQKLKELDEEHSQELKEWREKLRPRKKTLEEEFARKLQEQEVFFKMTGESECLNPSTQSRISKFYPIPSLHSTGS
Chain of Misshapen-like kinase 1 (Homo sapiens) (Q8N4C8 whole entry, looked up): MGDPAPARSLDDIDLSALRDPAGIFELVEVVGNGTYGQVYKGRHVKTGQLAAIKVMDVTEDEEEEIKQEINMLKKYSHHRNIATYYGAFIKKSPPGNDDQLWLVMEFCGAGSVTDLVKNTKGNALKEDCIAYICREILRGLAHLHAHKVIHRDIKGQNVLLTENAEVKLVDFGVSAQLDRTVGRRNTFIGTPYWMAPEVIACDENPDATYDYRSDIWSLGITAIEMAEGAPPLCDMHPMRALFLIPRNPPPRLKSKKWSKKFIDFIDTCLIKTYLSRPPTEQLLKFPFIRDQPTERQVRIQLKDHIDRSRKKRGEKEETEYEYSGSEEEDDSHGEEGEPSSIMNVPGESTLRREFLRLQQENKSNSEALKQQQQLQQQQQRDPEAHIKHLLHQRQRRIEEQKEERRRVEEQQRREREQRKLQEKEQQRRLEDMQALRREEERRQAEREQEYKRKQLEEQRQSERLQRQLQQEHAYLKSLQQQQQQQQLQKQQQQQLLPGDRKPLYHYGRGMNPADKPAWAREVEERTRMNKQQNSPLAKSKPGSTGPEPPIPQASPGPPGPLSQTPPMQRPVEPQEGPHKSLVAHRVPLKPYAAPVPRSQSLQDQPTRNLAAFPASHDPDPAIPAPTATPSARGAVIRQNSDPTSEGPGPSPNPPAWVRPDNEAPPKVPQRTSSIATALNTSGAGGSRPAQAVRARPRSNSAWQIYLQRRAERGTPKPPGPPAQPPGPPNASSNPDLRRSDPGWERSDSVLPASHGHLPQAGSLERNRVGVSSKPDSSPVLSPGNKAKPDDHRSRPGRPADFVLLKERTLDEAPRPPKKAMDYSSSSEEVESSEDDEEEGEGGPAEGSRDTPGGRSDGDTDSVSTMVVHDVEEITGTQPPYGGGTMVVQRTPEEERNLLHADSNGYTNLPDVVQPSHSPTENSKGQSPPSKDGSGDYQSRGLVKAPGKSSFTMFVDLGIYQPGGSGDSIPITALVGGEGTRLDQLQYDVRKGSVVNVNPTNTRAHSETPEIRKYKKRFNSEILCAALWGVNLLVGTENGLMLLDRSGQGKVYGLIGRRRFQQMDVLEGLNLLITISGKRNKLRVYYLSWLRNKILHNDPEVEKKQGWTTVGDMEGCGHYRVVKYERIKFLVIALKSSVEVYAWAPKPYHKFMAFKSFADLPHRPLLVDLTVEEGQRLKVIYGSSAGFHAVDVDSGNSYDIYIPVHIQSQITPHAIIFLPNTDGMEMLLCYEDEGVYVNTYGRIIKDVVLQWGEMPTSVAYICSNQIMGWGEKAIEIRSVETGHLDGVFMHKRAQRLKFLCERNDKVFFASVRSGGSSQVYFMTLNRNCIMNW
Chain of Calcium/calmodulin-dependent protein kinase type 1B (Homo sapiens) (Q6P2M8 whole entry): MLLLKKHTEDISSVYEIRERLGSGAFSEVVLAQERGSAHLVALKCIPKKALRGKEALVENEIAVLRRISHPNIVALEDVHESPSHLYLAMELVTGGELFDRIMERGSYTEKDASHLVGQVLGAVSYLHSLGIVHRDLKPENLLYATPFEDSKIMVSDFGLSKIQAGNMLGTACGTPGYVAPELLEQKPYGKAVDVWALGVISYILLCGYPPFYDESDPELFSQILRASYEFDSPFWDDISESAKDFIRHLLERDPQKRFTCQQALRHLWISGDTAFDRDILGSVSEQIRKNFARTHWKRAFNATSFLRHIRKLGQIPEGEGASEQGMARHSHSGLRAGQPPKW

Row | Compound | Activity [1] | Activity [2] | Activity [3] | Activity [4] | Activity [5] | Activity [6] | Activity [7] | Activity [8] | Activity [9]
1 | CC[C@H](Nc1ncnc2[nH]cnc12)c1nc2cccc(F)c2c(=O)n1-c1ccccc1 | 103% | 96.9% | 103% | 99.3% | 97.3% | 89.3% | 95.2% | 101% | 103%
2 | CC(C)Oc1ccc(-c2nn([C@@H](C)c3oc4ccc(F)cc4c(=O)c3-c3cccc(F)c3)c3ncnc(N)c23)cc1F [UMBRALISIB] | 100% | 97.4% | 102% | 98.1% | 94.5% | 88.3% | 96.4% | 113% | 100%
3 | C[C@H](Nc1ncnc2nc[nH]c12)c1cc2cccc(Cl)c2c(=O)n1-c1ccccc1 | 102% | 94.5% | 100% | 95.8% | 97.5% | 89.4% | 97% | 93.5% | 98.4%

Source: ChEMBL document CHEMBL5715954, “Silencing c-Myc translation as a therapeutic strategy through targeting PI3Kδ and CK1ε in hematological malignancies” (Blood, 2017)
